# Assays:
# [1] = biological target: GDP-bound KRAS wild-type protein (Homo sapiens, UniProt P01116); experiment: Binding to KRAS by surface plasmon resonance (SPR), Single Cycle Kinetics; conditions: SPR, Single Cycle Kinetics, GDP-bound KRAS wild-type protein; read-out: KRAS KD
# [2] = biological target: GDP-bound NRAS wild-type protein (Homo sapiens, UniProt P01111); experiment: Binding to NRAS by surface plasmon resonance (SPR), Single Cycle Kinetics; conditions: SPR, GDP-bound NRAS wild-type protein vs GDP-bound KRAS wild-type protein
# Chain of GDP-bound NRAS wild-type protein (P01111 whole entry): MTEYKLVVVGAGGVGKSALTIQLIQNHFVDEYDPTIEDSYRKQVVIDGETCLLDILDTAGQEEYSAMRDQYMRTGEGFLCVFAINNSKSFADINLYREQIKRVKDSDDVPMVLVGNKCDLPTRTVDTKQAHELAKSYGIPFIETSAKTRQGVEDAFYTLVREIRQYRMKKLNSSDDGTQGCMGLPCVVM
# [3] = biological target: GDP-bound HRAS wild-type protein (Homo sapiens, UniProt P01112); experiment: Binding to HRAS by surface plasmon resonance (SPR), Single Cycle Kinetics; conditions: SPR, GDP-bound HRAS wild-type protein vs GDP-bound KRAS wild-type protein
# Chain of GDP-bound HRAS wild-type protein (P01112 whole entry): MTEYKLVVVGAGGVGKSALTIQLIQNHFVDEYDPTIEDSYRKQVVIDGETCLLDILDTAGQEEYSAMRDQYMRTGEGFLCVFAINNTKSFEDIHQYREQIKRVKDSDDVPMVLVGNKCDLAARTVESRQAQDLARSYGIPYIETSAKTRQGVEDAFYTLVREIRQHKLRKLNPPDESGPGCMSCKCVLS
# Chain of GDP-bound KRAS wild-type protein (P01116 whole entry): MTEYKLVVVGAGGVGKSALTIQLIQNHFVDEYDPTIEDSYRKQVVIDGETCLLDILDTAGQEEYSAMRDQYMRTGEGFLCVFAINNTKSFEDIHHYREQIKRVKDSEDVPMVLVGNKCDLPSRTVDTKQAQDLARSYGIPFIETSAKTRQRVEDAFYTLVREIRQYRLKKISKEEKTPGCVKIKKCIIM
Structure (SMILES),Kd [1],NRAS/KRAS (ratio of KD value for NRAS to KD value for KRAS) [2],HRAS/KRAS (ratio of KD value for HRAS to KD value for KRAS) [3]
CCC[C@H]1C(=O)N[C@@H]([C@@H](C)CC)C(=O)N(C)CC(=O)N(C)[C@H]2C/C=C\CCN(C2=O)[C@@H](Cc2ccc(C(F)(F)F)cc2)C(=O)N(C)CC(=O)N[C@@H](CCc2ccc(Cl)c(Cl)c2)C(=O)N2CCCCC[C@H]2C(=O)NC2(CC(C)(C)C2)C(=O)N(C)[C@@H](C(CC)CC)C(=O)N(C)[C@H](C(=O)N(C)C)CC(=O)N1C [PP3031],1.9 nM,AA (a compound having 20 or more is denoted as AA),A (a compound having 10 or more and less than 20 is denoted as A)
CCO[C@@H]1C[C@H]2C(=O)NC3(CC(C)(C)C3)C(=O)N(C)[C@@H](C(CC)CC)C(=O)N(C)[C@H](C(=O)N(C)C)CC(=O)N(C)[C@H]3CCCCCCc4ccc(cc4)C[C@@H](C(=O)N(C)CC(=O)N[C@@H](CCc4ccc(C(F)(F)F)c(OC)c4)C(=O)N2C1)N1CC/C=C\C[C@@H](C1=O)N(C)C(=O)CN(C)C(=O)[C@H]([C@@H](C)CC)NC3=O [PP3032],0.1 nM,AA (a compound having 20 or more is denoted as AA),A (a compound having 10 or more and less than 20 is denoted as A)
"CCO[C@@H]1C[C@H]2C(=O)NC3(CCC3)C(=O)N(C)[C@@H](C3CCCC3)C(=O)N(C)[C@H](C(=O)N3CCCCC3)CC(=O)N(C)[C@H]3CCCCCCc4ccc(cc4)C[C@@H](C(=O)N(C)CC(=O)N[C@@H](CCc4ccc(C(F)(F)F)c(OC)c4)C(=O)N2C1)N1CC/C=C\C[C@@H](C1=O)N(C)C(=O)CN(C)C(=O)[C@H]([C@@H](C)CC)NC3=O [PP3033, (1S,7S,11R,13S,19S,22S,26S,29S,35S,37Z)-19-cyclopentyl-11-ethoxy-7-[2-[3-methoxy-4-(trifluoromethyl)phenyl]ethyl]-3,18,21,25,31,34-hexamethyl-29-[(1S)-1-methylpropyl]-22-(piperidine-1-carbonyl)spiro[3,6,9,15,18,21,25,28,31,34,41-undecazapentacyclo[24.15.11.2^43,46.1^35,41.0^9,13]pentapentaconta-37,43(54),44,46(53)-tetraene-16,1′-cyclobutane]-2,5,8,14,17,20,24,27,30,33,55-undecone]",0.18 nM,A (a compound having 10 or more and less than 20 is denoted as A),B (a compound having 3 or more and less than 10 is denoted as B)
"CCO[C@@H]1C[C@H]2C(=O)NC3(CC(C)(C)C3)C(=O)N(C)[C@@H](C3CCCC3)C(=O)N(C)[C@H](C(=O)N3CCCC3)CC(=O)N(C)[C@H]3CCCCCCc4ccc(cc4)C[C@@H](C(=O)N(C)CC(=O)N[C@@H](CCc4ccc(C(F)(F)F)c(OC)c4)C(=O)N2C1)N1CC/C=C\C[C@@H](C1=O)N(C)C(=O)CN(C)C(=O)[C@H]([C@@H](C)CC)NC3=O [PP3034, (1S,7S,11R,13S,19S,22S,26S,29S,35S,37Z)-19-cyclopentyl-11-ethoxy-7-[2-[3-methoxy-4-(trifluoromethyl)phenyl]ethyl]-3,3′,3′,18,21,25,31,34-octamethyl-29-[(1S)-1-methylpropyl]-22-(pyrrolidine-1-carbonyl)spiro[3,6,9,15,18,21,25,28,31,34,41-undecazapentacyclo[24.15.11.2^43,46.1^35,41.0^9,13]pentapentaconta-37,43(54),44,46(53)-tetraene-16,1′-cyclobutane]-2,5,8,14,17,20,24,27,30,33,55-undecone]",0.11 nM,A (a compound having 10 or more and less than 20 is denoted as A),B (a compound having 3 or more and less than 10 is denoted as B)

# Source: patent publication US20240158446A1, “CYCLIC COMPOUND HAVING SELECTIVE INHIBITORY ACTION ON KRAS OVER HRAS AND NRAS” (CHUGAI SEIYAKU KABUSHIKI KAISHA, priority 2021, published 2024)
